Assay results taken from ChEMBL document CHEMBL4732114, “Design and structural optimization of novel 2H-benzo[h]chromene derivatives that target AcrB and reverse bacterial multidrug resistance” (Eur J Med Chem, 2021).
In brackets after ≈: the same amount, converted by molar mass.

What was measured:
[1] = target: T1, Multidrug efflux pump subunit AcrB (Escherichia coli (strain K12)) (UniProt P31224); experiment: Inhibition of AcrB in multidrug-resistant Escherichia coli BW25113 assessed as potentiation of chloramphenicol-induced antibacterial activity by measuring chloramphenicol MIC at 64 ug/ml by checkerboard titration method (reference value: 8 ug/ml); conditions: dose 64.0 µg/ml
T1 sequence (whole entry): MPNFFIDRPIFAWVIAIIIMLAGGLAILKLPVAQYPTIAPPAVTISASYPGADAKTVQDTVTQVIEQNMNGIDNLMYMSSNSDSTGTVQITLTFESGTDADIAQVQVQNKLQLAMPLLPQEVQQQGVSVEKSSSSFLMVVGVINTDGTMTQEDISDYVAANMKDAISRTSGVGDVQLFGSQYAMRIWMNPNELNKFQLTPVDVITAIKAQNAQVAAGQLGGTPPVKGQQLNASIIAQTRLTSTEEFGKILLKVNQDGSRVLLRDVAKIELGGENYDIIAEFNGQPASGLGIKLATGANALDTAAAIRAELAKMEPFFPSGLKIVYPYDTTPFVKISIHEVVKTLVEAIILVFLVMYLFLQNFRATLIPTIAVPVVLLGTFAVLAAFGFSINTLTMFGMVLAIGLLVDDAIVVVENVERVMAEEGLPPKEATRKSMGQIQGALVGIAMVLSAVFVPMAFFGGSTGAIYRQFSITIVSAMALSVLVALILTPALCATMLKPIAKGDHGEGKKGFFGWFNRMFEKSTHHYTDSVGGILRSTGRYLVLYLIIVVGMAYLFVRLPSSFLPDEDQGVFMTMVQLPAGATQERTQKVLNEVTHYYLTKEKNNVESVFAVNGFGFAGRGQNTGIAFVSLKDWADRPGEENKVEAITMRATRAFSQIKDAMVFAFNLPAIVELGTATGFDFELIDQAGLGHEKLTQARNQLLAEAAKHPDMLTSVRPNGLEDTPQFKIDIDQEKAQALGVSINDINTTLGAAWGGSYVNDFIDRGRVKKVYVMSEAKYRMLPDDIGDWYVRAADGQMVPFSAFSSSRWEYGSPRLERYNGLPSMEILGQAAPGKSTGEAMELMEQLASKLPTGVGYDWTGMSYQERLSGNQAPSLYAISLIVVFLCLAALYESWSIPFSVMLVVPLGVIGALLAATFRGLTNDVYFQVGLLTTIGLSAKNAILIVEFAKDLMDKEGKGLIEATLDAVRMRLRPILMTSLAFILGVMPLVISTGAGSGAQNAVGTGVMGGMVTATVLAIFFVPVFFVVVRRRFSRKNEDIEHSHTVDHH

[2] = target: T1, Multidrug efflux pump subunit AcrB (Escherichia coli (strain K12)); experiment: Inhibition of AcrB in multidrug-resistant Escherichia coli BW25113 assessed as potentiation of tetraphenylphosphonium-induced antibacterial activity by measuring tetraphenylphosphonium MIC at 8 ug/ml by checkerboard titration method (reference value: 1024 ug/ml); conditions: dose 8.0 µg/ml
[3] = target: T1, Multidrug efflux pump subunit AcrB (Escherichia coli (strain K12)); experiment: Inhibition of AcrB in multidrug-resistant Escherichia coli BW25113 assessed as potentiation of chloramphenicol-induced antibacterial activity by measuring chloramphenicol MIC at 128 ug/ml by checkerboard titration method (reference value: 8 ug/ml); conditions: dose 128.0 µg/ml
[4] = target: T1, Multidrug efflux pump subunit AcrB (Escherichia coli (strain K12)); experiment: Inhibition of AcrB in multidrug-resistant Escherichia coli BW25113 assessed as potentiation of tetraphenylphosphonium-induced antibacterial activity by measuring tetraphenylphosphonium MIC at 32 ug/ml by checkerboard titration method (reference value: 1024 ug/ml); conditions: dose 32.0 µg/ml
[5] = Toxicity in multidrug-resistant Escherichia coli BW25113 assessed as growth inhibition by two-fold broth dilution method
[6] = target: T1, Multidrug efflux pump subunit AcrB (Escherichia coli (strain K12)); conditions: Escherichia coli BW25113; dose 16.0 µg/ml
[7] = target: T1, Multidrug efflux pump subunit AcrB (Escherichia coli (strain K12)); conditions: Escherichia coli BW25113; dose 32.0 µg/ml
[8] = target: T1, Multidrug efflux pump subunit AcrB (Escherichia coli (strain K12)); experiment: Inhibition of AcrB in multidrug-resistant Escherichia coli BW25113 assessed as potentiation of chloramphenicol-induced antibacterial activity by measuring chloramphenicol MIC at 16 ug/ml by checkerboard titration method (reference value: 8 ug/ml); conditions: dose 16.0 µg/ml
[9] = target: T1, Multidrug efflux pump subunit AcrB (Escherichia coli (strain K12)); experiment: Inhibition of AcrB in multidrug-resistant Escherichia coli BW25113 assessed as potentiation of chloramphenicol-induced antibacterial activity by measuring chloramphenicol MIC at 8 ug/ml by checkerboard titration method (reference value: 8 ug/ml); conditions: dose 8.0 µg/ml
[10] = target: T1, Multidrug efflux pump subunit AcrB (Escherichia coli (strain K12)); experiment: Inhibition of AcrB in multidrug-resistant Escherichia coli BW25113 assessed as potentiation of erythromycin-induced antibacterial activity by measuring erythromycin MIC at 32 ug/ml by checkerboard titration method (reference value: 64 ug/ml); conditions: dose 32.0 µg/ml
[11] = target: T1, Multidrug efflux pump subunit AcrB (Escherichia coli (strain K12)); experiment: Inhibition of AcrB in multidrug-resistant Escherichia coli BW25113 assessed as potentiation of levofloxacin-induced antibacterial activity by measuring levofloxacin MIC at 32 ug/ml by checkerboard titration method (reference value: 0.06 ug/ml); conditions: dose 32.0 µg/ml
[12] = target: T1, Multidrug efflux pump subunit AcrB (Escherichia coli (strain K12)); experiment: Inhibition of AcrB in multidrug-resistant Escherichia coli BW25113 assessed as potentiation of levofloxacin-induced antibacterial activity by measuring levofloxacin MIC at 8 ug/ml by checkerboard titration method (reference value: 0.06 ug/ml); conditions: dose 8.0 µg/ml
[13] = target: T1, Multidrug efflux pump subunit AcrB (Escherichia coli (strain K12)); experiment: Inhibition of AcrB in multidrug-resistant Escherichia coli BW25113 assessed as potentiation of tetraphenylphosphonium-induced antibacterial activity by measuring tetraphenylphosphonium MIC at 16 ug/ml by checkerboard titration method (reference value: 1024 ug/ml); conditions: dose 16.0 µg/ml
[14] = Toxicity in multidrug-resistant Escherichia coli BW25113 harboring AcrB deletion mutant assessed as growth inhibition by two-fold broth dilution method
[15] = target: T1, Multidrug efflux pump subunit AcrB (Escherichia coli (strain K12)); conditions: Escherichia coli BW25113; dose 64.0 µg/ml
[16] = target: T1, Multidrug efflux pump subunit AcrB (Escherichia coli (strain K12)); conditions: Escherichia coli BW25113; dose 128.0 µg/ml
[17] = target: T1, Multidrug efflux pump subunit AcrB (Escherichia coli (strain K12)); experiment: Inhibition of AcrB in multidrug-resistant Escherichia coli BW25113 assessed as potentiation of erythromycin-induced antibacterial activity by measuring erythromycin MIC at 8 ug/ml by checkerboard titration method (reference value: 64 ug/ml); conditions: dose 8.0 µg/ml

| SMILES | MIC [1] [µg/mL] | MIC [2] [µg/mL] | MIC [3] [µg/mL] | MIC [4] [µg/mL] | MIC [5] [µg/mL] | MIC [6] [µg/mL] | MIC [7] [µg/mL] | MIC [8] [µg/mL] | MIC [9] [µg/mL] | MIC [10] [µg/mL] | MIC [11] [µg/mL] | MIC [12] [µg/mL] | MIC [13] [µg/mL] | MIC [14] [µg/mL] | MIC [15] [µg/mL] | MIC [16] [µg/mL] | MIC [17] [µg/mL] |
| --- | --- | --- | --- | --- | --- | --- | --- | --- | --- | --- | --- | --- | --- | --- | --- | --- | --- |
| CC1(C)CC(=O)c2ccc(OCCNC3CCCC3)cc2O1 | 8 | 512 | 8 | 512 | > 512 | 16 (≈ 52.7 µM) | 16 (≈ 52.7 µM) | 8 | 8 | 64 | 0.03 | 0.06 | 512 | > 128 | 16 (≈ 52.7 µM) | 16 (≈ 52.7 µM) | 64 |
| Cc1ccccc1COc1cccc2c3c(c(-c4nnco4)cc12)CCC(C)(C)O3 | 8 | 512 | 8 | 512 | > 512 | 16 (≈ 40 µM) | 16 (≈ 40 µM) | 8 | 8 | 32 | 0.06 | 0.06 | 512 | > 128 | 16 (≈ 40 µM) | 16 (≈ 40 µM) | 64 |
| CC(C)NCCOc1ccc2c(c1)OC(C)(C)CC2=O | 8 | 1020 | 8 | 1020 | > 512 | 16 (≈ 57.7 µM) | 16 (≈ 57.7 µM) | 8 | 8 | 64 | 0.03 | 0.03 | 1020 | > 128 | 16 (≈ 57.7 µM) | 16 (≈ 57.7 µM) | 64 |
| CC1(C)CCc2c(C(=O)O)cc3c(OCc4ccccc4)cccc3c2O1 | 4 | 1020 | 1 | 512 | > 512 | 16 (≈ 44.1 µM) | 16 (≈ 44.1 µM) | 8 | 8 | 64 | 0.06 | 0.06 | 1020 | > 128 | 16 (≈ 44.1 µM) | 16 (≈ 44.1 µM) | 64 |
| CC1(C)CCc2c(C(=O)N3CCOCC3)cc3c(OCc4ccc(C(F)(F)F)cc4)cccc3c2O1 | 8 | 512 | 4 | 512 | > 512 | 16 (≈ 32 µM) | 16 (≈ 32 µM) | 8 | 8 | 64 | 0.06 | 0.06 | 512 | > 128 | 16 (≈ 32 µM) | 16 (≈ 32 µM) | 64 |
| CC1(C)CCc2c(C(=O)N3CCOCC3)cc3c(OCc4ccccc4)cccc3c2O1 | 4 | 512 | 4 | 512 | > 512 | 16 (≈ 37.1 µM) | 16 (≈ 37.1 µM) | 4 | 8 | 64 | 0.03 | 0.03 | 512 | > 128 | 16 (≈ 37.1 µM) | 16 (≈ 37.1 µM) | 64 |
| CC1CN(C(=O)c2cc3c(OCc4c(Cl)cccc4Cl)cccc3c3c2CCC(C)(C)O3)CC(C)O1 (stereo not drawn) | 8 | 1020 | 8 | 1020 |  | 16 (≈ 30.3 µM) | 16 (≈ 30.3 µM) | 8 | 8 | 64 | 0.03 | 0.03 | 1020 |  | 16 (≈ 30.3 µM) | 16 (≈ 30.3 µM) | 64 |
| CC1(C)CC(=O)c2ccc(OCC(=O)Nc3ccc(C#N)c(C(F)(F)F)c3)cc2O1 | 4 | 1020 |  | 512 | > 512 | 16 (≈ 38.2 µM) | 16 (≈ 38.2 µM) | 8 | 8 | 64 | 0.06 | 0.06 | 1020 | > 128 | 16 (≈ 38.2 µM) | 16 (≈ 38.2 µM) | 64 |
